Results published in US7692030B2, “Conjugates of artemisinin-related endoperoxides and hydrazone derivatives for the treatment of cancer” (University of Washington, priority 2006, dated 2010).

What was measured:
[1] = system: approximately 60 human tumor cell lines; assay: NCI DTP human tumor cell line screen, whole panel statistics; assay type: cell-based; conditions: 10 μM, 48 h
Method: Representative compounds of the invention, prepared as described in EXAMPLES 1-6, were submitted to the Developmental Therapeutics Program of the United States National Cancer Institute (NCl) to screen for anti-cancer activity. The anti-cancer activities of the six compounds were tested against approximately 60 human tumor cell lines representing leukemia, melanoma, and cancers of the lung, colon, breast, ovary, kidney, prostate, and brain. The following screening methodology was provided by the NCl. […] For experimental screens, cells were inoculated into 96 well microtiter plates in 100 μL at plating densities ranging from 5,000 to 40,000 cells/well depending on the doubling time of individual cell lines. After cell inoculation, the microtiter plates were incubated at 37° C., 5% carbon dioxide, 95% air and 100% relative humidity for 24 hours prior to addition of the compounds. After 24 hours of incubation, two plates of each cell line were fixed in situ with trichloroacetic acid (TCA) to represent a measurement of the cell population for each cell line at the time of compound addition (Tz). The compounds were solubilized in dimethyl sulfoxide at 400-fold the desired final maximum test concentration and stored frozen prior to use. At the time of drug addition, frozen aliquots of the compounds thawed and diluted with complete medium containing 50 μg/ml gentamicin. Aliquots of 100 μl of these different compound dilutions were added to the appropriate microtiter wells already containing 100 μl of medium, resulting in the required final compound concentration of 10 μM. Following compound addition, the plates were incubated for an additional 48 h at 37° C., 5% carbon dioxide, 95% air, and 100% relative humidity. For adherent cells, the assay was terminated by the addition of cold TCA. Cells were fixed in situ by the gentle addition of 50 μl of cold 50% (w/v) TCA (final concentration, 10% TCA) and incubated for 60 minutes at 4° C. The supernatant was discarded, and the plates were washed five times with tap water and air dried. Sulforhodamine B (SRB) solution (100 μl) at 0.4% (w/v) in 1% acetic acid was added to each well, and plates were incubated for 10 minutes at room temperature. After staining, unbound dye was removed by washing five times with 1% acetic acid and the plates were air dried. Bound stain was subsequently solubilized with 10 mM trizma base, and the absorbance was read on an automated plate reader at a wavelength of 515 nm. For suspension cells, the methodology was the same except that the assay was terminated by fixing settled cells at the bottom of the wells by gently adding 50 μl of 80% TCA (final concentration, 16% TCA). Using the three absorbance measurements [time zero, (Tz), control growth, (C), and test growth in the presence of compound (Ti)], the percentage growth was calculated at each of the compound concentrations levels. Percentage growth inhibition was calculated with the following algorithms: [(Ti−Tz)/(C−Tz)]×100 for concentrations for which Ti>/=Tz [(Ti−Tz)/Tz]×100 for concentrations for which Ti<Tz The results of the NCl in vitro anticancer screening with six compounds against various human tumor cell lines are presented below in Tables 2-7. […] The growth percent mean, delta, and range for each compound are given below.

HL-60(TB) = assay type: cell-based, human; conditions: Leukemia, 10 μM, 48 h
Method: The human tumor cell lines of the cancer screening panel were grown in RPMI 1640 medium containing 5% fetal bovine serum and 2 mM L-glutamine. For experimental screens, cells were inoculated into 96 well microtiter plates in 100 μL at plating densities ranging from 5,000 to 40,000 cells/well depending on the doubling time of individual cell lines. After cell inoculation, the microtiter plates were incubated at 37° C., 5% carbon dioxide, 95% air and 100% relative humidity for 24 hours prior to addition of the compounds.

UO-31 = assay: NCI DTP human tumor cell line screen (SRB); assay type: cell-based; conditions: Renal Cancer, 10 μM, 48 h
Summary of the method: (§1)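 Cells plated and preincubated 24 h at 37 °C, 5% CO2, then exposed to compound at 10 μM final for 48 h. Adherent cells fixed with cold TCA, stained with SRB, absorbance read at 515 nm. Percent growth derived from time-zero (Tz), control (C) and treated (Ti) readings.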

PC-3 = assay: NCI DTP human tumor cell line screen (SRB); assay type: cell-based; conditions: Prostate Cancer, 10 μM, 48 h
Summary of the method: as §1

NCI-H322M = assay: NCI DTP human tumor cell line screen (SRB); assay type: cell-based; conditions: Non-Small Cell Lung Cancer, 10 μM, 48 h
Summary of the method: as §1

SF-539 = assay: NCI DTP human tumor cell line screen (SRB); assay type: cell-based; conditions: CNS Cancer, 10 μM, 48 h
Summary of the method: as §1

KM12 = assay: NCI DTP human tumor cell line screen (SRB); assay type: cell-based; conditions: Colon Cancer, 10 μM, 48 h
Summary of the method: as §1

ACHN = assay: NCI DTP human tumor cell line screen (SRB); assay type: cell-based; conditions: Renal Cancer, 10 μM, 48 h
Summary of the method: as §1

A498 = assay: NCI DTP human tumor cell line screen (SRB); assay type: cell-based; conditions: Renal Cancer, 10 μM, 48 h
Summary of the method: as §1

U251 = assay: NCI DTP human tumor cell line screen (SRB); assay type: cell-based; conditions: CNS Cancer, 10 μM, 48 h
Summary of the method: as §1

OVCAR-4 = assay: NCI DTP human tumor cell line screen (SRB); assay type: cell-based; conditions: Ovarian Cancer, 10 μM, 48 h
Summary of the method: as §1

MCF7 = assay: NCI DTP human tumor cell line screen (SRB); assay type: cell-based; conditions: Breast Cancer, 10 μM, 48 h
Summary of the method: as §1

OVCAR-5 = assay: NCI DTP human tumor cell line screen (SRB); assay type: cell-based; conditions: Ovarian Cancer, 10 μM, 48 h
Summary of the method: as §1

NCI-H460 = assay: NCI DTP human tumor cell line screen (SRB); assay type: cell-based; conditions: Non-Small Cell Lung Cancer, 10 μM, 48 h
Summary of the method: as §1

NCI/ADR-RES = assay: NCI DTP human tumor cell line screen (SRB); assay type: cell-based; conditions: Breast Cancer, 10 μM, 48 h
Summary of the method: as §1

M14 = assay: NCI DTP human tumor cell line screen (SRB); assay type: cell-based; conditions: Melanoma, 10 μM, 48 h
Summary of the method: as §1

HCT-116 = assay: NCI DTP human tumor cell line screen (SRB); assay type: cell-based; conditions: Colon Cancer, 10 μM, 48 h
Summary of the method: as §1

RPMI-8226 = assay: NCI DTP human tumor cell line screen (SRB); assay type: cell-based; conditions: Leukemia, 10 μM, 48 h
Summary of the method: as §1

CAKI-1 = assay: NCI DTP human tumor cell line screen (SRB); assay type: cell-based; conditions: Renal Cancer, 10 μM, 48 h
Summary of the method: as §1

SF-268 = assay: NCI DTP human tumor cell line screen (SRB); assay type: cell-based; conditions: CNS Cancer, 10 μM, 48 h
Summary of the method: as §1

NCI-H226 = assay: NCI DTP human tumor cell line screen (SRB); assay type: cell-based; conditions: Non-Small Cell Lung Cancer, 10 μM, 48 h
Summary of the method: as §1

786-0 = assay: NCI DTP human tumor cell line screen (SRB); assay type: cell-based; conditions: Renal Cancer, 10 μM, 48 h
Summary of the method: as §1

NCI-H522 = assay: NCI DTP human tumor cell line screen (SRB); assay type: cell-based; conditions: Non-Small Cell Lung Cancer, 10 μM, 48 h
Summary of the method: as §1

MALME-3M = assay: NCI DTP human tumor cell line screen (SRB); assay type: cell-based; conditions: Melanoma, 10 μM, 48 h
Summary of the method: as §1

For `CC1CCC2C(C)C(OCc3ccc(C(=O)NN=Cc4ccccc4)cc3)OC3OC4(C)CCC1C32OO4` (centres unmarked) [ART-Phe-Bz, N′-(benzylidene)-4-(dihydroxyartemisinin-methyl)-phenyl carbohydrazide], the mean growth percent ([1]; mean over all cell lines tested) was 17.28%, the “delta value (growth percent)” value ([1]; over all cell lines tested) was 66.68 and the “range (growth percent)” value ([1]; over all cell lines tested) was 102.60. The “Growth Percent” value (HL-60(TB)) was −49.40%, the “Growth Percent” value (UO-31) was −21.11% and the “Growth Percent” value (PC-3) was 12.32%. For the same compound, the “Growth Percent” value (NCI-H322M) was 53.20%, the “Growth Percent” value (SF-539) was 25.70% and the “Growth Percent” value (KM12) was 10.19%. The “Growth Percent” value (ACHN) was 16.91%, the “Growth Percent” value (A498) was 30.47% and the “Growth Percent” value (U251) was 36.35%. For the same compound, the “Growth Percent” value (OVCAR-4) was 18.29%, the “Growth Percent” value (MCF7) was 11.63% and the “Growth Percent” value (OVCAR-5) was 28.19%. The “Growth Percent” value (NCI-H460) was 32.58%, the “Growth Percent” value (NCI/ADR-RES) was 19.93% and the “Growth Percent” value (M14) was 34.29%. For the same compound, the “Growth Percent” value (HCT-116) was 5.59%, the “Growth Percent” value (RPMI-8226) was 1.50% and the “Growth Percent” value (CAKI-1) was 5.53%. The “Growth Percent” value (SF-268) was 35.30%, the “Growth Percent” value (NCI-H226) was 29.10% and the “Growth Percent” value (786-0) was 26.79%. For the same compound, the “Growth Percent” value (NCI-H522) was −9.33% and the “Growth Percent” value (MALME-3M) was 32.27%.
